Read-outs that look alike come from different tables or passages of the source.
Assays:
[1] = tested on: P. falciparum stage V gametocytes; experiment: microbe, parasite or virus in culture; design: BacTiter-Glo ATP luminescence viability of purified stage V gametocytes in 384-well plates, per cent inhibition versus DMSO
[2] = tested on: HepG2 cells; experiment: Cytotoxicity in HepG2 cells (intracellular ATP, ATPlite, 48 h); format: cell-based, human; settings: HepG2 cells; IC50 per ratio column head; unit inferred
Experimental: Cells were grown and maintained in EMEM (Sigma-Aldrich) supplemented with 2mM L-glutamine (Sigma-Aldrich) and 10% fetal calf serum (Perbio). […] Passages were routinely made upon reaching 80–90% confluence. For cytotoxicity experiments, cells were seeded onto 96-well clear bottom black plates coated with type I collagen (Biocoat, Becton Dickinson) at a cell density of 20,000 cells/well.
To determine cytotoxic effects, represented by the Tox50 value (the concentration of drug that reduces cell viability by 50%), cells were exposed to serial dilutions of compounds for 48 h at 37°C. The assay medium was as previously described, but supplemented with 5% fetal calf serum instead of 10%. […] In the presence of ATP, luminescence is emitted as the reaction described earlier for the BacTiter-Glo kit. Percentages of inhibition were calculated relative to vehicle control wells.

[3] = tested on: P. falciparum stage V gametocytes; experiment: Gametocytocidal ATP bioluminescence assay (single point 5 μM and 1 μM, dose-response); format: cell-based, Plasmodium falciparum; settings: for Ratio IC50 HepG2/IC50 P. falciparum: IC50 HepG2 divided by IC50 P. falciparum gametocytes
Experimental: Purified stage IV-V gametocytes were obtained as previously described [10]. Single point ATP bioluminescence assay and dose–response of positive hits was determined in accordance with the previously published protocol [10].

[4] = tested on: P. falciparum asexual stages; settings: asexual stages; TCAMS data; read-out: IC50 asexual; cited from earlier work
[5] = Plasmodium falciparum, 48 h, read-out: % Inhibition
[6] = P. falciparum gametocytes, average, read-out: IC50 Pf Gametocytes average, IC50 (µM) average
[7] = sexual stages (gametocytes), dose-response, read-out: IC50 sexual

SMILES: CCCCN(CCCC)CC(O)c1cc(-c2ccc(Cl)cc2)nc2c(Cl)cc(Cl)cc12 (stereo not drawn) [TCMDC-142268]
- inhibition at 5 µM [1, 5]: -20.8%

SMILES: CCCC(=O)c1cnc2cc(O)ccc2c1Nc1ccccc1C [TCMDC-142323]
- inhibition at 5 µM [1, 5]: -12.6%

SMILES: COc1cccc2c(NN=Cc3ccccc3Cl)cc(C)nc12 [TCMDC-142116]
- inhibition at 5 µM [1, 5]: 23.3%

SMILES: O=[N+]([O-])c1ccccc1C=NNc1ccnc2ccccc12 [TCMDC-142102]
- inhibition at 5 µM [1, 5]: -47.5%

SMILES: COc1ccc2c(NN=Cc3ccccc3)ccnc2c1 [TCMDC-142111]
- inhibition at 5 µM [1, 5]: 89.4%

SMILES: CCOc1ccc2c(NN=Cc3cccc(F)c3)cc(C)nc2c1 [TCMDC-142194]
- inhibition at 5 µM [1, 5]: -6.63%

SMILES: Cc1cc(NN=Cc2ccccc2Cl)c2ccc(F)cc2n1 [TCMDC-142162]
- inhibition at 5 µM [1, 5]: -52.4%

SMILES: Fc1ccccc1C=NNc1ccnc2ccc(C(F)(F)F)cc12 [TCMDC-142104]
- inhibition at 5 µM [1, 5]: -68.2%

SMILES: Cc1ccccc1C1=CCN(CCCN2c3ccccc3Sc3ccc(Cl)cc32)CC1 [TCMDC-142249]
- inhibition at 5 µM [1, 5]: 53.4%

SMILES: Nc1c2c(nc3ccc(NC(=O)c4ccc([N+](=O)[O-])cc4)cc13)CCCC2 [TCMDC-142291]
- inhibition at 5 µM [1, 5]: 60.6%

SMILES: Cc1cc(Br)cnc1CCCCNc1cc(=O)c2ccccc2[nH]1 [TCMDC-142316]
- inhibition at 5 µM [1, 5]: -5.57%

SMILES: COc1ccc2nccc(NN=Cc3ccccc3Cl)c2c1 [TCMDC-142126]
- inhibition at 5 µM [1, 5]: 20.5%

SMILES: CCCCCc1cc(O)c2c(c1)OC(C)(C)c1ccncc1-2 [TCMDC-142255]
- inhibition at 5 µM ([1]; Plasmodium falciparum, 48 h; read-out: % Inhibition): -24.7%

SMILES: CCn1c(-c2nonc2N)nc2c(-c3cc4ccccc4s3)ncc(C(=O)N3CCC(N)C3)c21 (stereo not drawn) [TCMDC-135281]
- IC50 [2]: 3500 nM
- Ratio IC50 HepG2/IC50 P. falciparum [3]: 10
- IC50 [3, 6]: 0.35 µM
- IC50 [4]: 871 nM

SMILES: c1ccc2c(NCCCCCCCCCNc3ccnc4ccccc34)ccnc2c1 [TCMDC-137750]
- IC50 [2]: 2900 nM
- Ratio IC50 HepG2/IC50 P. falciparum [3]: 2.83
- IC50 [3, 6]: 1.03 µM
- IC50 [3, 7]: 1.02 µM
- IC50 [4]: 115 nM

SMILES: COc1cc(Br)c(S(=O)(=O)n2cc(CN3CCC(N)CC3)c3cc(Cl)ccc32)cc1OC [TCMDC-136384]
- IC50 [2]: 6700 nM
- Ratio IC50 HepG2/IC50 P. falciparum [3]: 2.77
- IC50 [3, 6]: 2.42 µM
- IC50 [3, 7]: 2.42 µM
- IC50 [4]: 985 nM

SMILES: FC(F)(F)COc1c(CCNCCCCNCCc2ccc3ccccc3c2OCC(F)(F)F)ccc2ccccc12 [TCMDC-137169]
- IC50 [2]: 2800 nM
- Ratio IC50 HepG2/IC50 P. falciparum [3]: 28
- IC50 [3, 6]: 0.1 µM
- IC50 [4]: 348 nM

SMILES: CC(C)NCc1ccc(OCc2cccc(COc3ccc(CNC(C)C)cc3I)c2)c(I)c1 [TCMDC-137259]
- IC50 [2]: 4900 nM
- Ratio IC50 HepG2/IC50 P. falciparum [3]: 23
- IC50 [3, 6]: 0.21 µM
- IC50 [4]: 92 nM

SMILES: FC(F)(F)COc1ccc(CCNCCCCNCCc2ccc(OCC(F)(F)F)c3ccccc23)c2ccccc12 [TCMDC-137282]
- IC50 [2]: 3000 nM
- Ratio IC50 HepG2/IC50 P. falciparum [3]: 112
- IC50 [3, 6]: 0.0267 µM
- IC50 [3, 7]: 0.027 µM
- IC50 [4]: 648 nM

SMILES: C[C@H](Cc1ccc(CCc2ccc(C[C@@H](C)NC[C@H](O)c3cccc(Cl)c3)cc2)cc1)NC[C@H](O)c1cccc(Cl)c1 [TCMDC-131551]
- IC50 [2]: 3100 nM
- Ratio IC50 HepG2/IC50 P. falciparum [3]: 12
- IC50 [3, 6]: 0.27 µM
- IC50 [3, 7]: 0.267 µM
- IC50 [4]: 935 nM

SMILES: CN1CCCc2cc(NC(=O)C=Cc3ccc(-c4ccc(F)cc4F)o3)ccc2C1 [TCMDC-134051]
- IC50 [2]: 13400 nM
- Ratio IC50 HepG2/IC50 P. falciparum [3]: <1
- IC50 [3, 6]: > 10 µM
- IC50 [4]: 783 nM

SMILES: CC(CCCC(=O)Nc1ccc(CC(C)NCCc2cccc(Cl)c2)cc1)NCCc1cccc(Cl)c1 (stereo not drawn) [TCMDC-139798]
- IC50 [2]: 4500 nM
- Ratio IC50 HepG2/IC50 P. falciparum [3]: 5.52
- IC50 [3, 6]: 0.82 µM
- IC50 [3, 7]: 0.815 µM
- IC50 [4]: 625 nM

SMILES: FC(F)(F)COc1ccc2ccccc2c1CNCCCCCCNCc1c(OCC(F)(F)F)ccc2ccccc12 [TCMDC-137816]
- IC50 [2]: 3040 nM
- Ratio IC50 HepG2/IC50 P. falciparum [3]: 8
- IC50 [3, 6]: 0.37 µM
- IC50 [4]: 352 nM

SMILES: C#CCOc1ccc2ccccc2c1CNCCCCCCNCc1c(OCC#C)ccc2ccccc12 [TCMDC-137838]
- IC50 [2]: 3190 nM
- Ratio IC50 HepG2/IC50 P. falciparum [3]: 6.38
- IC50 [3, 6]: 0.5 µM
- IC50 [4]: 780 nM

SMILES: COc1c(OC)c(OC)c2ccccc2c1CNCCCCCCNCc1c(OC)c(OC)c(OC)c2ccccc12 [TCMDC-137827]
- IC50 [2]: 3200 nM
- Ratio IC50 HepG2/IC50 P. falciparum [3]: 2.79
- IC50 [3, 6]: 1.15 µM
- IC50 [3, 7]: 1.15 µM
- IC50 [4]: 759 nM

SMILES: CCOc1ccc2ccccc2c1CNCCCCCCNCc1c(OCC)ccc2ccccc12 [TCMDC-137791]
- IC50 [2]: 1750 nM
- Ratio IC50 HepG2/IC50 P. falciparum [3]: 2.5
- IC50 [3, 6]: 0.7 µM
- IC50 [4]: 576 nM

SMILES: CCN(CC)CCCNc1ncc2c(-c3ccc(NC(=O)Nc4cc(C(F)(F)F)ccc4F)cc3)nn(C)c2n1 [TCMDC-141583]
- IC50 [2]: 9500 nM
- Ratio IC50 HepG2/IC50 P. falciparum [3]: 2.73
- IC50 [3, 6]: 3.48 µM
- IC50 [4]: 220 nM

SMILES: COc1cc2ccccc2cc1OCCCN1CCN(CC(c2ccc(F)cc2)N2CCN(C(C)C)CC2)CC1 (stereo not drawn) [TCMDC-135496]
- IC50 [2]: 3720 nM
- Ratio IC50 HepG2/IC50 P. falciparum [3]: 3
- IC50 [3, 6]: 1.25 µM
- IC50 [3, 7]: 1.25 µM
- IC50 [4]: 749 nM

SMILES: CN1CCN(CCCN(Cc2cccc(-c3ccc(CNC4CCCC4)cc3)c2)C(=O)/C=C/c2ccccc2)CC1 [TCMDC-140544]
- IC50 [2]: 6390 nM
- Ratio IC50 HepG2/IC50 P. falciparum [3]: 9
- IC50 [3, 6]: 0.74 µM
- IC50 [3, 7]: 0.735 µM
- IC50 [4]: 746 nM

SMILES: CCN(CC)CCOc1ccc(C(O)(C#CC(O)(c2ccc(OCCN(CC)CC)cc2)c2ccc([N+](=O)[O-])cc2)c2ccc([N+](=O)[O-])cc2)cc1 (stereo not drawn) [TCMDC-137201]
- IC50 [2]: 6200 nM
- Ratio IC50 HepG2/IC50 P. falciparum [3]: 28
- IC50 [3, 6]: 0.22 µM
- IC50 [3, 7]: 0.224 µM
- IC50 [4]: 1730 nM

SMILES: O=C(/C=C/c1ccc(Cl)c(Cl)c1)NCCCCCN1CCCC(CNS(=O)(=O)c2cccc(C(F)(F)F)c2)C1 (stereo not drawn) [TCMDC-139597]
- IC50 [2]: 3800 nM
- Ratio IC50 HepG2/IC50 P. falciparum [3]: 0.4
- IC50 [3, 6]: 8.63 µM
- IC50 [4]: 950 nM

SMILES: CN1CCN(CCCN(Cc2cccc(-c3cccc(CNC4CCCC4)c3)c2)C(=O)/C=C/c2ccccc2)CC1 [TCMDC-140543]
- IC50 [2]: 7170 nM
- Ratio IC50 HepG2/IC50 P. falciparum [3]: 9
- IC50 [3, 6]: 0.8 µM
- IC50 [3, 7]: 0.805 µM
- IC50 [4]: 777 nM
